Entries after “also recorded” stand apart in the source; their conditions may differ.
What was measured:
white rats = assay: acute oral toxicity (LD50) on white rats; details: rat, in vivo
Description: (§1) Therefore, the new compound of the formula (I) can be utilized to advantage as insecticidal agent for controlling granarial insect pests and insects attacking ornamental plants, indoor plants and vegetables.

cholinesterase = cholinesterase blocking effect; format: biochemical
[1] = test system: dried bean beetle (Acanthoscelides obtectus); assay: protection against dried bean beetle, procedure of Example 13(a) (Table 7); format: in vivo; details: compared with dichlorphon
Description: (§2) The emulsifiable concentrate described in Example 8 was diluted with water to a final active agent content of 3% by weight, and an amount corresponding to 2.5 mg of racemic active agent/cm^2 of plane area of the resulting spray liquid was filled into a cylindrical flask. 20 flies, anaesthetized with carbon dioxide, were placed in the flask, the flask was covered with a Petri dish, and the effect of the active agent was observed. In the control test the same dosage of dichlorphon (O,O-dimethyl-2,2-dichlorovinyl phosphate) was applied as active agent.
Protection against dried bean beetle (Acanthoscelides obtectus)

[2] = test system: housefly (Musca domestica) larvae; assay: insecticidal activity, protection against housefly larvae (Table 6); format: in vivo; details: for Development: in relation to the control
Description: 1 kg of wheat barn was admixed with 1 liter of milk, 10 g of fodder yeast and 6 g of Nipagin (ethyl p-hydroxybenzoate) to obtain a culture medium for the cultivation of housefly larvae. 200 g each of the above culture medium were put into small cylindrical flasks, and racemic active agent was added so that the active agent content of the culture medium was 250, 500 and 1000 ppm, respectively. The racemic active agent was introduced in the form of an emulsifiable concentrate containing 50% by weight of the compound concerned, and the culture medium was homogenized with the concentrate. No active agent was introduced into the control flask. 50 one-day-old housefly larvae each were placed in the cylindrical flasks, the flasks were covered with a cloth ensuring good ventilation, and the percentage of images developing from the pupae was determined in relation to the control.

Green pepper = assay: greenhouse pre-emergent treatment, green weight, green pepper (Table 2); format: in vivo; details: 4-week-old plants
Description: (§3) (a2) Seeds of bean, carrot, flax, green pepper, tomato, spinach, barley and sorghum were sown into cultivation pots (20×20 cm) filled with sand. The cultivation pots were placed in a greenhouse, and treated prior to plant emergence with 0.1 or 0.2 kg of racemic active agent/hectare. The green weights of the 4-week-old plants were measured, and the data were compared to those observed with the untreated controls.

Sorghum = assay: greenhouse pre-emergent treatment, green weight, sorghum (Table 2); format: in vivo; details: 4-week-old plants
Description: as §3

corn [3] = assay: greenhouse test, plant growth promoting effect on corn from dressed seeds (Table 1); format: in vivo
Description: (§4) 6 parts by weight of a 10% acetone solution of (±)-2-(propargyloxyimino)-1,7,7-trimethyl-bicyclo[2,2,1]heptane are added under stirring to a solution containing 30 parts by weight of acetone, 2.5 parts by weight of hydroxypropyl cellulose, 5 parts by weight of polyethylene glycol (molecular weight: 6000), 20 parts by weight of water and an arbitrary amount of a dyestuff having no germination-inhibiting effect.
(§5) (a1) Three cultivation pots were filled with sand, and 30 corn seeds each were sown. 10 of the seeds were not dressed (untreated controls), 10 of the seeds were dressed with a dressing agent described in Example 10 but containing no active agent (placebo), whereas the remaining 10 seeds were dressed with a dressing agent prepared according to Example 10 containing racemic active agent. The cultivation pots were placed in a greenhouse, and the temperature, light and atmospheric humidity of the greenhouse were maintained at optimum. The percentage of germinating seeds was determined, and on the 14th and 28th days after sowing the height and green weight of the emerged plants were measured. The results of the test are summarized in Table 1, in which the percentage of germination is related to the number of seeds sown, whereas the heights and green weights of the plants are given in percentages related to the untreated controls.

Carrot = assay: greenhouse pre-emergent treatment, green weight, carrot (Table 2); format: in vivo; details: 4-week-old plants
Description: as §3

[4] = acute oral toxicity (LD50) on white rats; details: rat, in vivo; white rats, oral administration
Description: as §1

corn [5] = assay: open-air test on small parcels with dressed corn seeds (Table 3); format: in vivo
Description: as §4, §5
The procedure described in point (a) was repeated with the difference that the seeds were sown in a 10×10 m parcel, the plants were kept under observation for the whole growth season, and the crop yield was also determined. The parcel was hoed in order to remove weeds.

Bean = assay: greenhouse pre-emergent treatment, green weight, bean (Table 2); format: in vivo; details: 4-week-old plants
Description: as §3

Spinach = assay: greenhouse pre-emergent treatment, green weight, spinach (Table 2); format: in vivo; details: 0.1 kg/ha, 4-week-old plants
Description: as §3

corn [6] = assay: open-air test on small parcels, pre- or post-emergent spraying of corn (Table 4); format: in vivo; details: for Ear yield / Green weight / Height: untreated = 100
Description: 10 parts by weight of (±)-2-(propargyloxyimino)-1,7,7-trimethyl-bicyclo[2,2,1]heptane are dissolved in 9 parts by weight of xylene, and 1 part by weight of a mixture of an anionic and a non-ionic surfactant (e.g. a 2:3 mixture of Atlox 3386 and Atlox 4851) is added to the solution. The mixture is homogenized. An emulsifiable concentrate containing 50% by weight of active agent (50 EC) is obtained, which can be diluted with water to form a spray liquid.
Corn seeds were sown in small (10×10 m) parcels, and the parcels were treated prior to or after plant emergence with an aqueous spray liquid prepared from the emulsifiable concentrate described in Example 8. The concentrate was diluted with rain water to a final active agent content of 0.02 to 0.1%, depending on the dosage applied, and 500 liters/hectare of the spray liquid were applied. The dosages examined in the pre-emergent treatments varied between […] of racemic active agent/hectare, whereas in the post-emergent treatment a dosage of 1 kg of racemic active agent/hectare was applied. The parcels were hoed in order to remove weeds.

Flax = assay: greenhouse pre-emergent treatment, green weight, flax (Table 2); format: in vivo; details: 4-week-old plants
Description: as §3

[7] = test system: houseflies (Musca domestica); assay: insecticidal activity, protection against houseflies (Table 5); details: in vivo
Description: as §2

Barley = assay: greenhouse pre-emergent treatment, green weight, barley (Table 2); format: in vivo; details: 4-week-old plants
Description: as §3

Tomato = assay: greenhouse pre-emergent treatment, green weight, tomato (Table 2); format: in vivo; details: 4-week-old plants
Description: as §3

[8] = test system: dried bean beetle (Acanthoscelides obtectus); assay: protection against dried bean beetle on treated bean seeds (Table 8); format: in vivo
Description: (b) 100 g of bean seeds each were treated with a spray liquid containing 1.0% by weight of racemic active agent (prepared by diluting an emulsifiable concentrate containing 50% by weight of active agent) in an amount corresponding to 250, 500 and 1000 ppm of active agent, respectively. The control seeds were not treated. The seeds were put into small cylindrical flasks. 20 insects each were placed in the flasks, and the flasks were covered with a cloth. After 14 days the survivors were counted.

[9] = 14th day after sowing, related to untreated controls
[10] = 28th day after sowing, related to untreated controls
[11] = dressed seeds, open air, untreated control = 100
[12] = post-emergent, 1.0 kg of active agent/hectare
[13] = pre-emergent, 0.1 kg of active agent/hectare
[14] = pre-emergent, 1.0 kg of active agent/hectare
[15] = pre-emergent, 3.0 kg of active agent/hectare
[16] = pre-emergent, 5.0 kg of active agent/hectare

What does the source list for `C#CCON=C1CC2CCC1(C)C2(C)C` (racemic) [new compound of the formula (I), 2-(proparglyoxyimino)-1,7,7-trimethyl-bicyclo[2,2,1]heptane]?
toxicity (in words) (white rats): low toxicity; also recorded: superior to the known active agent with respect to its lower toxicity; cholinesterase blocking effect (cholinesterase): absence of cholinesterase blocking effect; speed of effect on more resistant test insects (in words) [1]: slower on more resistant test insects

Which Activity ([2]; 250 ppm) does the source give for `C#CCON=C1CC2CCC1(C)C2(C)C` (racemic) [racemic active agent, (±)-2-(propargyloxyimino)-1,7,7-trimethyl-bicyclo[2,2,1]heptane] here?
The Activity was 70.4%.

And the Development ([2]; 250 ppm)?
Its Development is 29.6%.

What about the Activity ([2]; 500 ppm) of the same compound?
The Activity was 100.0%.

What about the Development ([2]; 500 ppm) of the same compound?
The Development was 0%.

What about the Activity ([2]; 1000 ppm) of the same compound?
The Activity was 100.0%.

And the Development ([2]; 1000 ppm)?
Its Development is 0%.

What about the “Green weight in relation to the controls” value (Green pepper; 0.1 kg/ha) of the same compound?
Its value is 95%.

And the “Green weight in relation to the controls” value (Green pepper; 0.2 kg/ha)?
Its value is 140%.

What about the “Green weight in relation to the controls” value (Sorghum; 0.1 kg/ha) of the same compound?
The value was 130%.

And the “Green weight in relation to the controls” value (Sorghum; 0.2 kg/ha)?
Its value is 130%.

And the “14th day Green weight” value (corn [3]; [9])?
Its value is 152%.

And the “14th day Height” value (corn [3]; [9])?
Its value is 143%.

What about the “28th day Green weight” value (corn [3]; [10]) of the same compound?
The value was 154%.

And the “28th day Height” value (corn [3]; [10])?
The value was 148%.

And the Germination (corn [3]; dressed corn seeds, greenhouse, related to number of seeds sown)?
Its Germination is 95%.

What about the “Green weight in relation to the controls” value (Carrot; 0.1 kg/ha) of the same compound?
Its value is 105%.

What about the “Green weight in relation to the controls” value (Carrot; 0.2 kg/ha) of the same compound?
The value was 140%.

And the LD50 [4]?
The LD50 was 1400 mg/kg.

What about the “corn higher by (in comparison with the two controls)” value (corn [5]; Table 3) of the same compound?
The value was 27%.

What about the “ear yield greater by (in comparison with the two controls)” value (corn [5]; Table 3) of the same compound?
Its value is 20%.

And the “green weight higher by (in comparison with the two controls)” value (corn [5]; Table 3)?
Its value is 25%.

And the Ear yield (corn [5]; [11])?
Its Ear yield is 120%.

And the Green weight (corn [5]; [11])?
Its Green weight is 125%.

What about the Height (corn [5]; [11]) of the same compound?
The Height was 127%.

What about the “Green weight in relation to the controls” value (Bean; 0.1 kg/ha) of the same compound?
The value was 110%.

What about the “Green weight in relation to the controls” value (Bean; 0.2 kg/ha) of the same compound?
Its value is 135%.

And the “Green weight in relation to the controls” value (Spinach)?
Its value is 135%.

And the Ear yield (corn [6]; [12])?
Its Ear yield is 109%.

What about the Green weight (corn [6]; [12]) of the same compound?
The Green weight was 120%.

And the Height (corn [6]; [12])?
The Height was 116%.

What about the “post-emergent results compared with pre-emergent, same dosage (in words)” value (corn [6]; post-emergent, 1 kg/hectare) of the same compound?
Its value is “slightly inferior to the former ones”.

What about the Ear yield (corn [6]; [13]) of the same compound?
Its Ear yield is 102%.

And the Green weight (corn [6]; [13])?
Its Green weight is 108%.

And the Height (corn [6]; [13])?
The Height was 105%.

What about the “effectiveness in pre-emergent treatment (in words)” value (corn [6]; pre-emergent, 0.1 kg/hectare) of the same compound?
Its value is “effective even in a dosage of 0.1 kg/hectare”.

And the Ear yield (corn [6]; [14])?
Its Ear yield is 118%.

And the Green weight (corn [6]; [14])?
Its Green weight is 127%.

What about the Height (corn [6]; [14]) of the same compound?
The Height was 121%.

And the Ear yield (corn [6]; [15])?
The Ear yield was 116%.

And the Green weight (corn [6]; [15])?
The Green weight was 135%.

And the Height (corn [6]; [15])?
The Height was 127%.

What about the Ear yield (corn [6]; [16]) of the same compound?
The Ear yield was 107%.

What about the Green weight (corn [6]; [16]) of the same compound?
Its Green weight is 115%.

What about the Height (corn [6]; [16]) of the same compound?
Its Height is 115%.

And the “Green weight in relation to the controls” value (Flax; 0.1 kg/ha)?
The value was 118%.

What about the “Green weight in relation to the controls” value (Flax; 0.2 kg/ha) of the same compound?
The value was 105%.

And the “effect on houseflies compared with dichlorphon (in words)” value [7]?
The value was “approximately the same effect as dichlorphon”.

What about the “Green weight in relation to the controls” value (Barley; 0.1 kg/ha) of the same compound?
Its value is 120%.

What about the “Green weight in relation to the controls” value (Barley; 0.2 kg/ha) of the same compound?
The value was 105%.

And the “Green weight in relation to the controls” value (Tomato; 0.1 kg/ha)?
Its value is 120%.

And the “Green weight in relation to the controls” value (Tomato; 0.2 kg/ha)?
Its value is 112%.

And the survival at 250 ppm ([8]; Acanthoscelides obtectus, 336 h, 250 ppm, after 14 days, percentage of the control, read-out: Survivors)?
The survival at 250 ppm was 5%.

What about the survival at 500 ppm ([8]; Acanthoscelides obtectus, 336 h, 500 ppm, after 14 days, percentage of the control, read-out: Survivors) of the same compound?
Its survival at 500 ppm is 0%.

What about the survival at 1000 ppm ([8]; Acanthoscelides obtectus, 336 h, 1000 ppm, after 14 days, percentage of the control, read-out: Survivors) of the same compound?
Its survival at 1000 ppm is 0%.

And the “killing of granarial insect pests such as dried bean beetle (in words)” value ([8]; even in a concentration of 250 ppm)?
Its value is “can be applied successfully to kill granarial insect pests”.

From patent US4310348A, “Plant growth regulating compositions” (priority 1978, dated 1982)
